Several values for one entry are separate records, joined by “and”; a condition that tells them apart may be missing. Identical values can stand only once.
Tested on: brown planthoppers, Nilaparvata lugens
Test: Field efficacy on brown planthopper in transplanted rice (small-plot trials A-D)
Format: in vivo
Details: Sulfoxaflor 50 g/ha, Buprofezin 100 g/ha, mixture 50 + 100 g/ha
Description: Applications were made to transplanted rice, Oryza sativa, using small-plot efficacy methods. Chemicals were diluted in water and all treatments were applied using a backpack sprayer calibrated to deliver 500 liters of spray solution per hectare. Experimental plots measured 5 by 10 meters and each treatment was replicated three times in each trial. At the specified intervals after treatment, brown planthoppers, Nilaparvata lugens, were counted in 10 randomly selected hills per plot. Data were transformed to percent control relative to the untreated plots, then subjected to analysis of variance, and means were separated using Tukey's HSD (p=0.1). Expected control was calculated using the method of Colby and compared to observed control. See the Table Section for the results of the Field Trials.

[1] = Trial A, 1 DAT, relative to untreated plots

| SMILES | % Control [1] | % Control (Trial A, 3 DAT) | % Control (Trial A, 7 DAT) | % Control (Trial A, 10 DAT) | % Control (Trial A, 15 DAT) | % Control (Trial B, 1 DAT) | % Control (Trial B, 3 DAT) | % Control (Trial B, 7 DAT) | % Control (Trial B, 10 DAT) | % Control (Trial B, 15 DAT) | % Control (Trial C, 1 DAT) | % Control (Trial C, 3 DAT) | % Control (Trial C, 7 DAT) | % Control (Trial C, 10 DAT) | % Control (Trial C, 15 DAT) | % Control (Trial D, 1 DAT) | % Control (Trial D, 7 DAT) | % Control (Trial D, 10 DAT) | % Control (Trial D, 15 DAT) |
| --- | --- | --- | --- | --- | --- | --- | --- | --- | --- | --- | --- | --- | --- | --- | --- | --- | --- | --- | --- |
| CC(c1ccc(C(F)(F)F)nc1)S(C)(=O)=NC#N (centres unmarked) [Sulfoxaflor] | 11.2 b % and 11.2% | 43.5 c % and 43.5% | 32.8 c % and 32.8% | 6.8 c % and 6.9% | 19.3 c % and 19.3% | 29.4 a % and 29.4% | 63.6 b % and 63.6% | 62.8 c % and 62.8% | 48.8 b % and 48.8% | 50.3 c % and 50.3% | 13.5 bc % and 13.5% | 42.4 c % and 42.2% | 57.9 b % and 57.9% | 9.6 b % and 9.6% | 30.1 c % and 30.1% | 71.4 b % and 71.4% | 72.9 b % and 72.9% | 57.5 b % and 57.5% | 51.9 b % and 51.9% |
| CC(C)N1C(=O)N(c2ccccc2)CS/C1=N\C(C)(C)C [Buprofezin] | 34.9 a % and 34.9% | 72.4 b % and 72.4% | 72.4 b % and 72.4% | 49.4 b % and 49.4% | 49.0 b % and 49.0% | 24.5 a % and 24.5% | 73.0 b % and 73.0% | 80.2 b % and 80.2% | 63.2 b % and 63.2% | 67.7 b % and 67.7% | 31.2 ab % and 31.2% | 63.2 b % and 63.2% | 61.2 b % and 61.2% | 31.2 b % and 31.2% | 47.8 b % and 47.8% | 78.2 b % and 78.2% | 66.0 b % and 66.0% | 34.0 c % and 34.0% | 47.6 b % and 47.6% |
